Experimental data from US20250367154A1, “FORMULATIONS FOR PROMOTING HYDRATION AND METHODS OF USE THEREOF” (UNIVERSITY OF FLORIDA RESEARCH FOUNDATION, INCORPORATED, priority 2020, published 2025).
“Also recorded” adds a separate entry of the source.

Test system: Small intestinal mucosal tissues (ileum and jejunum)
Test: Ussing chamber sodium flux (net Na absorption, 22Na)
Parameters: species or system Swiss mice
Conditions: single free amino acid in solution, FIG. 4
Experimental: Sodium (Na) Absorption Studies: measure net fluid and electrolyte absorption, wherein absorptive processes occur predominantly in the tip of the villi and secretory processes occur in the crypt. Na absorption studies were performed on certain of the amino acids present in 6AA-Hyd. […] Small intestinal mucosal tissues (ileum and jejunum) from 8-week old male Swiss mice were mounted in Ussing chambers containing isotonic Ringer solution, that was bubbled with 95% O2 and 5% CO2 and maintained at 37° C. throughout the experiment. After the tissues were allowed to stabilize, the conductance (G; expressed as mS/cm2) was recorded, and intestinal tissues were paired based on similar conductance. Sodium radioisotope (22Na) was added to either the basolateral or apical side of each tissue pair (Hot). Ringer samples were taken every 15 minutes from the contralateral sides (Cold). Sample 22Na activity was analyzed using a gamma counter, and unidirectional net sodium flux (Jnet; μeq·cm2·h−1) was calculated. [formula] [CPM=count per minute, CPM1=previous sample, CPM2=following sample; Blank=no 22Na added; 9/10=dilution factor for each sample (0.5 mL to 5 mL); 5=chamber volume (5 mL); 4=time factor (15 min to 60 min); 140=sodium concentration; Hot CPM=“Hot” sample activity; Cold CPM=“Cold” sample activity; 10=volume factor for Hot sample (0.1 mL to 1 mL); 0.3=intestinal surface area (cm2)]

Compound: CC(C)[C@H](N)C(=O)O [valine]
- net sodium (Na) absorption relative to control solution: increase net Na absorption relative to a control; also recorded: significantly higher than that of control solution

Compound: N[C@@H](CC(=O)O)C(=O)O [aspartic acid]
- net sodium (Na) absorption relative to control solution: increase net Na absorption relative to a control; also recorded: significantly higher than that of control solution

Compound: N[C@@H](CO)C(=O)O [serine]
- net sodium (Na) absorption relative to control solution: increase net Na absorption relative to a control; also recorded: significantly higher than that of control solution
